The record followed here is patent publication US7848557B2, “Rapid multi-tracer PET imaging systems and methods” (priority 2007, dated 2010).

SMILES strings stand for the structures. Like-named read-outs stand apart in the source and are kept apart here.

Data set [1] can be described thus: Arterial blood sampling with octanol separation of freely available and bound fractions. Format: in vivo, dogs. As to conditions: 10 min. after injection; remaining activity albumin bound. How it is done:
Arterial blood sampling. Blood samples (approximately 0.4-0.5 ml) were drawn from an AV shunt on a schedule similar to the scanning schedule for determination of the arterial input functions. […] Each sample was weighed and counted in a well counter soon after withdrawal, and corrections for radioactive decay were applied to recover time-activity curves for the whole-blood and freely-available arterial input functions for use with compartment modeling. […] While this could potentially complicate measurement of the input function for each tracer; however, at 10 min. after injection the octanol-extractable fraction of PTSM in the blood was only ˜1%, with the remaining activity albumin bound.

The conditions of data set [2]: for k1^Stress / k2^Stress / k3^Stress: adenosine stress; for k1^Rest: ± SD from fit covariance.
Method: Data acquisition. PET scans can be performed using, for example, an Advance™ PET scanner (GE Medical Systems, Waukesha, Wis.) operated in 2D mode, though other PET scanners are contemplated within the scope of this invention. Human subjects, when used, were positioned with arms down and a strap was placed across the chest to immobilize the subject and minimize movement artifacts. Transmission scans (^68Ge rod source) were acquired to position the heart in the field of view (2 min) and for attenuation correction (10 min). […] Scans performed during stress were started at the midpoint of a 6 minute adenosine infusion (0.14 mg kg^−1 min^−1) while vital signs including pulse rate, blood pressure and oxygen saturation were assessed by a physician using standard monitoring equipment.
Dynamic PET data were acquired with a waiting period of about 50-71 min between rest and stress emission scans. Imaging protocols were designed to allow rest and stress components to be added to emulate rapid dual-injection data as further described herein. Rest and stress emission scan data were acquired separately using the following temporal sampling schedule for the first 10 minutes: (12×5 s, 6×10 s, 6×30 s and 5×1 min). For rest scans, this schedule was repeated for another 10 minutes for a total emission scan duration of about 20 minutes. This provided equal duration stress timeframes that could be shifted in time and added to the rest timeframes in order to mimic a rapid dual-injection acquisition while retaining standard single-injection emission scan sequences.
Data processing. According to one embodiment, images were reconstructed using filtered back-projection with a Hanning window cutoff at 1.56 cycles cm^−1. The 128×128 image matrices had 4.3 mm voxels and a slice thickness of 4.25 mm. Data were pre-corrected for attenuation, scatter and randoms prior to reconstruction, but not for radioactive decay because it was included in the kinetic modeling equations. A reference image for each scan was created by summing up timeframes with steady uptake of tracer in the myocardium and used as a guide for reorienting to cardiac short-axis (SA) images. The SA images for all rest and stress timeframes in each subject were co-registered using a template showing the endocardial and epicardial boundaries. Based on visual comparison of an average mid-ventricular slice from each timeframe, the entire SA image volume was shifted manually to align with the template in the plane perpendicular to the SA of the heart. Co-registration was not performed in timeframes where myocardium and blood pool were indistinguishable.
Myocardial regions were selected based on a 17-segment model of the American Society of Nuclear Cardiology (Schelbert et al. 2003), known to those of ordinary skill in the art. On each slice of a reference image, endocardial and epicardial boundaries were drawn and the angle of insertion of the right ventricle into the septum was selected as a landmark for division into sectors. The myocardium was divided into one apical region, four sectors in the apical mid-ventricle, six sectors in the basal mid-ventricle and six sectors in the base of the heart. Blood pool regions were drawn manually in each subject with size restricted to limit partial volume effect and spillover of activity from the myocardium. In each subject, the same regions were applied to all co-registered rest and stress timeframes.
[3] abbreviates: emulated dual-injection, background subtraction, one typical myocardial region.
[4] abbreviates: emulated dual-injection, combined modeling, one typical myocardial region.
Where [5] appears, read: separate single-injection, one typical myocardial region.

For the molecule `CNC(=S)NN=CC(C)=NNC(=S)NC.[Cu]` [PTSM, copper-pyruvaldehyde-bis[N4-methylthiosemicarbazone]], in data set [1], the “octanol-extractable fraction in the blood” value is “roughly 1%”.
`[13NH3]` [^13N-ammonia]: in data set [2] (setting [3]), the “k1^Stress” value turned out to be 3.50 ± 0.32 mL/min/g, the “k2^Stress” value was found to be 0.80 ± 0.17, the “k3^Stress” value is listed as 0.24 ± 0.04 and the “k2^Rest” value came out at 0.13 ± 0.04. In data set [2] (setting [3]), the “k3^Rest” value was 0.08 ± 0.07 and the “k4^Rest” value is 0.47 ± 0.02. Besides, in data set [2] (setting [4]), the “k1^Stress” value stood at 3.44 ± 0.32 mL/min/g, the “k2^Stress” value came to 0.79 ± 0.17, the “k3^Stress” value came to 0.24 ± 0.04 and the “k2^Rest” value came to 0.14 ± 0.04. In data set [2] (setting [4]), the “k3^Rest” value is reported as 0.11 ± 0.06 and the “k4^Rest” value was found to be 0.47 ± 0.02. In data set [2] (setting [5]), the “k1^Stress” value stood at 3.33 ± 0.27 mL/min/g, the “k2^Stress” value was found to be 0.69 ± 0.12, the “k3^Stress” value is 0.20 ± 0.03 and the “k2^Rest” value came out at 0.13 ± 0.04. For the same molecule, in data set [2] (setting [5]), the “k3^Rest” value was 0.08 ± 0.07 and the “k4^Rest” value worked out at 0.47 ± 0.02. For the same molecule, the “k1^Rest” value in data set [2] (emulated dual-injection data, background subtraction, one typical myocardial region) turned out to be 0.92 ± 0.05 mL/min/g. For the same molecule, the “k1^Rest” value in data set [2] (emulated dual-injection data, combined modeling, 20 min, one typical myocardial region) is 0.93 ± 0.05 mL/min/g. Also, the “k1^Rest” value in data set [2] (separate single-injection, first 10 min of data, one typical myocardial region (FIG. 5)) came to 0.92 ± 0.05 mL/min/g.
